Data published in EP0908457B1, “3-(1,2-benzisothiazol- and isoxazol-5-Y1)-2,4(1H,3H)-pyrimidinedione or thione and 3-(1,2-benzisothiazol- and isoxazol-5-y1)-4(3H)-pyrimidinone or thione herbicidal agents” (BASF AKTIENGESELLSCHAFT, priority 1997, dated 1999).

Key:
[1] = tested on: Echinochloa oryzoides (Ard.) Fritsch.; experiment: Preemergence weed control under flooded paddy conditions, ECHORC (Watergrass (Calif.)); type: in vivo; settings: preemergence, flooded paddy, rated three to four weeks after treatment
Cyperus iria [2] = experiment: Preemergence weed control under flooded paddy conditions, CYPIR (Rice Flatsedge); type: in vivo; settings: preemergence, flooded paddy, rated three to four weeks after treatment
[3] = tested on: Cyperus serotinus, Rottb.; experiment: Preemergence weed control under flooded paddy conditions, CYPSE (Flatsedge); type: in vivo; settings: preemergence, rated three to four weeks after treatment
[4] = tested on: Monochoria vaginalis, Presl.; experiment: Preemergence weed control under flooded paddy conditions, MOOVA (Monochoria); type: in vivo; settings: preemergence, flooded paddy, rated three to four weeks after treatment
Sagittaria pygmaea, L. [5] = experiment: Preemergence weed control under flooded paddy conditions, SAGPY (Arrowhead (Pygmaea)); type: in vivo; settings: preemergence, flooded paddy, rated three to four weeks after treatment
[6] = tested on: Echinochloa oryzoides (Ard.) Fritsch.; experiment: Postemergence weed control under flooded paddy conditions, ECHORC (Watergrass (Calif.)); type: in vivo; settings: rated three to four weeks after treatment
Cyperus iria [7] = experiment: Postemergence weed control under flooded paddy conditions, CYPIR (Rice Flatsedge); type: in vivo; settings: rated three to four weeks after treatment
[8] = tested on: Cyperus serotinus, Rottb.; experiment: Postemergence weed control under flooded paddy conditions, CYPSE (Flatsedge); type: in vivo; settings: rated three to four weeks after treatment
[9] = tested on: Monochoria vaginalis, Presl.; experiment: Postemergence weed control under flooded paddy conditions, MOOVA (Monochoria); type: in vivo; settings: rated three to four weeks after treatment
Sagittaria pygmaea, L. [10] = experiment: Postemergence weed control under flooded paddy conditions, SAGPY (Arrowhead (Pygmaea)); type: in vivo; settings: rated three to four weeks after treatment
[11] = tested on: Oryza sativa, (L.) Tebonnet; experiment: Rice tolerance to post-transplant applications under flooded paddy conditions (Example 187), ORYSAT (Rice, Tebonnet); settings: rated three to four weeks after treatment; on herbicidal effect rating ORYSAT: meaning of each grade not given here
[12] = tested on: Oryza sativa, (L.) Tebonnet; experiment: Rice tolerance to post-transplant applications under flooded paddy conditions (Example 188), ORYSAT (Rice, Tebonnet); settings: rated three to four weeks after treatment

COc1c(-c2nsc3ccc(-n4c(=O)cc(C(F)(F)F)n(C)c4=O)cc23)ccc(C)c1C [Example 267, 2,4(1H,3H)-Pyrimidinedione, 3-[3-(2-methoxy-3,4-xylyl)-1,2-benzisothiazol-5-yl]-1-methyl-6-(trifluoromethyl)-]
0.0: CYPSE herbicidal effect rating ([3]; Rate 0.0320 kg/ha) | CYPSE herbicidal effect rating ([3]; Rate 0.0620 kg/ha) | SAGPY herbicidal effect rating (Sagittaria pygmaea, L. [5]; Rate 0.0320 kg/ha) | herbicidal effect rating, CYPSE ([8]; Rate 0.0320 kg/ha) | herbicidal effect rating, CYPSE ([8]; Rate 0.0620 kg/ha) | herbicidal effect rating, CYPSE ([8]; Rate 0.1250 kg/ha) | herbicidal effect rating, CYPSE ([8]; Rate 0.2500 kg/ha) | herbicidal effect rating, SAGPY (Sagittaria pygmaea, L. [10]; Rate 0.0320 kg/ha) | herbicidal effect rating, SAGPY (Sagittaria pygmaea, L. [10]; Rate 0.0620 kg/ha) | herbicidal effect rating, SAGPY (Sagittaria pygmaea, L. [10]; Rate 0.1250 kg/ha) | herbicidal effect rating, SAGPY (Sagittaria pygmaea, L. [10]; Rate 0.2500 kg/ha)
7.5: MOOVA herbicidal effect rating ([4]; Rate 0.0320 kg/ha)
4.5: ORYSAT herbicidal effect rating ([11]; Rate 0.1250 kg/ha)
8.0: CYPIR herbicidal effect rating (Cyperus iria [2]; Rate 0.0320 kg/ha) | CYPIR herbicidal effect rating (Cyperus iria [2]; Rate 0.0620 kg/ha) | herbicidal effect rating, ECHORC ([6]; Rate 0.0620 kg/ha)
1.0: SAGPY herbicidal effect rating (Sagittaria pygmaea, L. [5]; Rate 0.0620 kg/ha)
5.5: CYPSE herbicidal effect rating ([3]; Rate 0.1250 kg/ha)
4.0: herbicidal effect rating, ECHORC ([6]; Rate 0.0320 kg/ha)
9.0: ECHORC herbicidal effect rating ([1]; Rate 0.0320 kg/ha) | ECHORC herbicidal effect rating ([1]; Rate 0.0620 kg/ha) | ECHORC herbicidal effect rating ([1]; Rate 0.1250 kg/ha) | ECHORC herbicidal effect rating ([1]; Rate 0.2500 kg/ha) | CYPIR herbicidal effect rating (Cyperus iria [2]; Rate 0.1250 kg/ha) | CYPIR herbicidal effect rating (Cyperus iria [2]; Rate 0.2500 kg/ha) | CYPSE herbicidal effect rating ([3]; Rate 0.2500 kg/ha) | MOOVA herbicidal effect rating ([4]; Rate 0.0620 kg/ha) | MOOVA herbicidal effect rating ([4]; Rate 0.1250 kg/ha) | MOOVA herbicidal effect rating ([4]; Rate 0.2500 kg/ha) | herbicidal effect rating, ECHORC ([6]; Rate 0.1250 kg/ha) | herbicidal effect rating, ECHORC ([6]; Rate 0.2500 kg/ha) | herbicidal effect rating, CYPIR (Cyperus iria [7]; Rate 0.0320 kg/ha) | herbicidal effect rating, CYPIR (Cyperus iria [7]; Rate 0.0620 kg/ha) | herbicidal effect rating, CYPIR (Cyperus iria [7]; Rate 0.1250 kg/ha) | herbicidal effect rating, CYPIR (Cyperus iria [7]; Rate 0.2500 kg/ha) | herbicidal effect rating, MOOVA ([9]; Rate 0.0320 kg/ha) | herbicidal effect rating, MOOVA ([9]; Rate 0.0620 kg/ha) | herbicidal effect rating, MOOVA ([9]; Rate 0.1250 kg/ha) | herbicidal effect rating, MOOVA ([9]; Rate 0.2500 kg/ha)
3.0: SAGPY herbicidal effect rating (Sagittaria pygmaea, L. [5]; Rate 0.1250 kg/ha) | ORYSAT herbicidal effect rating ([11]; Rate 0.0620 kg/ha)
2.0: ORYSAT herbicidal effect rating ([11]; Rate 0.0320 kg/ha) | herbicidal effect rating, ORYSAT (rice tolerance) ([12]; Rate 0.0320 kg/ha)
7.0: herbicidal effect rating, ORYSAT (rice tolerance) ([12]; Rate 0.2500 kg/ha)
6.0: ORYSAT herbicidal effect rating ([11]; Rate 0.2500 kg/ha) | herbicidal effect rating, ORYSAT (rice tolerance) ([12]; Rate 0.1250 kg/ha)
5.0: SAGPY herbicidal effect rating (Sagittaria pygmaea, L. [5]; Rate 0.2500 kg/ha) | herbicidal effect rating, ORYSAT (rice tolerance) ([12]; Rate 0.0620 kg/ha)

CON(C)C(=O)COc1ccccc1-c1nsc2ccc(-n3c(=O)cc(C(F)(F)F)n(C)c3=O)cc12 [Example 354, Acetamide, 2-{o-{5-[3,6-dihydro-3-methyl-2,6-dioxo-4-(trifluoromethyl)-1(2H)-pyrimidinyl]-1,2-benzisothiazol-3-yl}phenoxy}-N-methoxy-N-methyl-]
4.0: herbicidal effect rating, ECHORC ([6]; Rate 0.0320 kg/ha)
6.3: herbicidal effect rating, SAGPY (Sagittaria pygmaea, L. [5]; Rate 0.0320 kg/ha)
8.0: herbicidal effect rating, CYPSE ([3]; Rate 0.0320 kg/ha) | herbicidal effect rating ORYSAT ([11]; Rate 0.0620 kg/ha)
0.0: herbicidal effect rating, SAGPY (Sagittaria pygmaea, L. [10]; Rate 0.0320 kg/ha)
6.0: herbicidal effect rating, MOOVA ([9]; Rate 0.0320 kg/ha) | herbicidal effect rating, ORYSAT (rice tolerance) ([12]; Rate 0.0620 kg/ha) | herbicidal effect rating, ORYSAT (rice tolerance) ([12]; Rate 0.1250 kg/ha)
1.0: herbicidal effect rating, CYPSE ([8]; Rate 0.0320 kg/ha)
7.0: herbicidal effect rating, ECHORC ([6]; Rate 0.0620 kg/ha)
9.0: herbicidal effect rating, ECHORC ([1]; Rate 0.0320 kg/ha) | herbicidal effect rating, ECHORC ([1]; Rate 0.0620 kg/ha) | herbicidal effect rating, ECHORC ([1]; Rate 0.1250 kg/ha) | herbicidal effect rating, ECHORC ([1]; Rate 0.2500 kg/ha) | herbicidal effect rating, CYPIR (Cyperus iria [2]; Rate 0.0620 kg/ha) | herbicidal effect rating, CYPIR (Cyperus iria [2]; Rate 0.1250 kg/ha) | herbicidal effect rating, CYPIR (Cyperus iria [2]; Rate 0.2500 kg/ha) | herbicidal effect rating, CYPSE ([3]; Rate 0.0620 kg/ha) | herbicidal effect rating, CYPSE ([3]; Rate 0.1250 kg/ha) | herbicidal effect rating, CYPSE ([3]; Rate 0.2500 kg/ha) | herbicidal effect rating, MOOVA ([4]; Rate 0.0320 kg/ha) | herbicidal effect rating, MOOVA ([4]; Rate 0.0620 kg/ha) | herbicidal effect rating, MOOVA ([4]; Rate 0.1250 kg/ha) | herbicidal effect rating, MOOVA ([4]; Rate 0.2500 kg/ha) | herbicidal effect rating, SAGPY (Sagittaria pygmaea, L. [5]; Rate 0.0620 kg/ha) | herbicidal effect rating, SAGPY (Sagittaria pygmaea, L. [5]; Rate 0.1250 kg/ha) | herbicidal effect rating, SAGPY (Sagittaria pygmaea, L. [5]; Rate 0.2500 kg/ha) | herbicidal effect rating, ECHORC ([6]; Rate 0.1250 kg/ha) | herbicidal effect rating, CYPIR (Cyperus iria [7]; Rate 0.0620 kg/ha) | herbicidal effect rating, CYPIR (Cyperus iria [7]; Rate 0.1250 kg/ha) | herbicidal effect rating, CYPSE ([8]; Rate 0.1250 kg/ha) | herbicidal effect rating, MOOVA ([9]; Rate 0.0620 kg/ha) | herbicidal effect rating, MOOVA ([9]; Rate 0.1250 kg/ha) | herbicidal effect rating, SAGPY (Sagittaria pygmaea, L. [10]; Rate 0.1250 kg/ha) | herbicidal effect rating ORYSAT ([11]; Rate 0.1250 kg/ha) | herbicidal effect rating ORYSAT ([11]; Rate 0.2500 kg/ha)
2.0: herbicidal effect rating, CYPSE ([8]; Rate 0.0620 kg/ha) | herbicidal effect rating, SAGPY (Sagittaria pygmaea, L. [10]; Rate 0.0620 kg/ha)
7.3: herbicidal effect rating ORYSAT ([11]; Rate 0.0320 kg/ha)
8.3: herbicidal effect rating, CYPIR (Cyperus iria [2]; Rate 0.0320 kg/ha)
